Source: paper PMC10572575, “Design, Synthesis, and Potent Anticancer Activity of Novel Indole-Based Bcl-2 Inhibitors” (International Journal of Molecular Sciences, 2023)

Assays:
MCF-7 cells [1] = test: MTT cytotoxicity assay, MCF-7; assay type: cell-based; details: Homo sapiens, MCF7, 48 h, mean ± SEM of three
Procedure: (§1) MDA-231 triple-negative breast cancer cells, MCF-7 breast cancer cells, and A549 adenocarcinomic human alveolar basal epithelial cells were maintained in Roswell Park Memorial Institute media (RPMI 1640, Sigma-Aldrich, St. Louis, MO, USA) supplemented with 10% foetal bovine serum and 1% penicillin/streptomycin. HDF human dermal normal fibroblast cells were cultured in Dulbecco’s Modified Eagle Medium (DMEM, Sigma-Aldrich, Eppelheim, Germany). MCF-7 breast cancer cell line was obtained from Cell Lines Service (CLS; Eppelheim, Germany). MDA-MB-231 breast cancer cell line and A549 cancer cells were obtained from the European Collection of Authenticated Cell Cultures (ECACC; Gillingham UK). Cell lines were maintained at 37 °C in a humidified incubator with 5% CO2.
(§2) The antiproliferative activity of compounds U1–6 was assessed using the 3-[4,5-dimethylthiazol-2-yl]-2,5-diphenyl tetrazolium bromide (MTT) assay, as previously described. Cancer cell lines were seeded in 96-well flatbottom plates at a density of 10^4 cells/well for 24 h. The cells were subsequently treated with U1–6 compounds at a screening concentration of 50 µM and incubated at 37 °C for 48 h in a humidified incubator containing 5% CO2. […] DMSO was used as a negative vehicle control (1% concentration). The culture media were then removed and incubated for 2 h with fresh 200 µL culture media containing 5 mg/mL MTT. After removing the culture media and dissolving the produced formazan crystals in 100 µL DMSO, they were incubated for another 30 min at 37 °C. The produced colour was measured at 570 nm using a microplate reader (Thermo-Scientific, Vantaa, Finland). The GraphPad Prism version 9.1 software was used to generate plots of absorbance versus the compound’s concentration. Three independent repeat experiments were performed for each concentration to ensure reproducibility. IC50 values were obtained from nonlinear regression plots of absorbance versus the log concentration of the tested compounds using the GraphPad Prism software version 5.0 (San Diego, CA, USA).

[2] = test system: HDF human dermal normal fibroblast cells; test: Safety profile on HDF normal fibroblasts; assay type: cell-based; details: 50 µM, 24 hrs
Procedure: as §1
as §2, with “h.” for “h. The cells were subsequently treated with U1–6 compounds at a screening concentration of 50 µM and incubated at 37 °C for 48 h in a humidified incubator containing 5% CO2.”

MDA-MB-231 cells = test: MTT cytotoxicity assay, MDA-MB-231; assay type: cell-based; details: Homo sapiens, 48 h, mean ± SEM of three
Procedure: as §1, §2

A549 cells = test: MTT cytotoxicity assay, A549; assay type: cell-based; details: Homo sapiens, 48 h, mean ± SEM of three
Procedure: as §1, §2

Bcl-2 protein = biological target: T1, Bcl-2 protein (Homo sapiens, UniProt P10415); test: Bim ELISA binding assay (Bcl-2–Bim binding); details: mean ± SEM of three, read-out: IC50 using ELISA against Bcl-2
T1 construct: purchased Thermo-Scientific BMS244-3
T1 sequence (P10415 whole entry): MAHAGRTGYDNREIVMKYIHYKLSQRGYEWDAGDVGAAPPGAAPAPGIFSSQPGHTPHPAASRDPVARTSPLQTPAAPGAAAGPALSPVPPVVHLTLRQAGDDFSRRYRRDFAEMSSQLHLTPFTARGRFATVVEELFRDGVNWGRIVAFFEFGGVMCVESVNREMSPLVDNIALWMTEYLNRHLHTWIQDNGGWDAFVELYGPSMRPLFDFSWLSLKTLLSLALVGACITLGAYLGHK
Procedure: A Bim-binding assay (Thermo-Scientific, Catalogue No # BMS244-3, Vienna, Austria) was performed according to previously published data. PBS solution containing 0.05% Tween-20 was used to wash a streptavidin-coated 96-well plate. For immobilisation, biotinylated Bim peptide (residues 81–106) was diluted in SuperBlock blocking solution and applied to each well. After incubation, the plate was washed with 0.5% BSA in PBS with Tween-20 solution. […] After another wash, each well received anti-His antibody with horseradish peroxidase enzyme. Following incubation and washing, O-phenylenediamine and hydrogen peroxide solution were added for colour production. A plate reader (Thermo-Scientific, Vantaa, Finland) was used to measure the optical density at 450 nm. The reduction in Bim affinity was measured using a nonlinear regression curve (GraphPad Prism. Version 5.0), which was also utilized to generate the IC50 value of Bcl-2 inhibition.

MCF-7 cells [3] = test: Cell cycle assay (PI flow cytometry); assay type: cell-based, human; details: MCF-7, 24 h, at IC50 concentration
Procedure: DMSO vehicle was used as a negative control (1% concentration). The cells were collected, centrifuged, and fixed in 70% ethanol on ice for 20 min. The fixed cells were incubated for 1 h at room temperature with staining solution ([…] propidium iodide PI, 0.05% Triton X-100, 0.1 mg/mL RNaseA). A Gallios flow cytometer (Beckman Coulter, Brea, CA, USA) was used to measure the cell cycle proportion.

MCF-7 cells [4] = test: Annexin-V-FITC apoptosis assay; assay type: cell-based, human; details: MCF-7, 24 h
Procedure: The Annexin-V-FITC apoptosis detection kit (Catalog # k101-25, Biovision, Mountain View, USA) was used for the apoptosis experiment according to previously published data. MCF-7 cells were treated with U2 compound for 24 h. The negative control was 0.1% DMSO. The cells were collected via centrifugation and resuspended in 500 µL of 1X Binding Buffer. Treated and control cells were stained with 5 µL Annexin V-FITC and 5 µL propidium iodide (PI […]) and then incubated at room temperature for 5 min in the dark. Fluorescence-activated cell sorting (FACS) was quantified via flow cytometry. Flow cytometry (excision at 488 nm; emission at 530 nm) was used to examine Annexin V-FITC binding and PI staining using the FITC signal detector and a phycoerythrin emission signal detector [71].

melting point [°C]	IC50 (Bcl-2 protein) [µM]	SMILES	IC50 (MCF-7 cells [1]) [µM]	Inhibitory activity against HDF cells compared with the negative control [2]	IC50 (MDA-MB-231 cells) [µM]	IC50 (A549 cells) [µM]	Cell cycle effect (MCF-7 cells [3])	Increase in early apoptosis compared with control untreated cells (MCF-7 cells [4]) [fold]	Increase in late apoptosis compared with control untreated cells (MCF-7 cells [4]) [fold]
208 to 210		O=C(CSc1nnc(-c2c[nH]c3ccccc23)n1-c1ccc(F)cc1)Nc1ccc(NC(=O)CN2CCOCC2)cc1 [Compound U1, 2-(4-(4-Fluorophenyl)-5-(1H-indol-3-yl)-4H-1,2,4-triazol-3-ylthio)-N-(4-(2 morpholinoacetamido)phenyl)acetamide]	5.05 ± 0.8	no significant change	20.7 ± 0.85	13.3 ± 0.58			
173 to 175	1.2 ± 0.02	COc1ccc(-n2c(SCC(=O)Nc3ccc(NC(=O)CN4CCOCC4)cc3)nnc2-c2c[nH]c3ccccc23)cc1 [Compound U2, 2-(5-(1H-Indol-3-yl)-4-(4-methoxyphenyl)-4H-1,2,4-triazol-3-ylthio)-N-(4-(2-morpholinoacetamido)phenyl)acetamide]	0.83 ± 0.11	limited toxicity	5.22 ± 0.55	0.73 ± 0.07	cell cycle arrest at the G1/S phase	43	111
250 to 252	11.1 ± 0.07	Cc1ccc(-n2c(SCC(=O)Nc3ccc(NC(=O)CN4CCOCC4)cc3)nnc2-c2c[nH]c3ccccc23)cc1 [Compound U3, 2-(5-(1H-Indol-3-yl)-4-methylphenyl-4H-1,2,4-triazol-3-ylthio)-N-(4-(2-morpholinoacetamido)phenyl)acetamide]	1.17 ± 0.1	no significant change	4.07 ± 0.35	2.98 ± 0.19			
208 to 210		O=C(CSc1nnc(-c2c[nH]c3ccccc23)n1-c1ccc(Cl)cc1)Nc1ccc(NC(=O)CN2CCOCC2)cc1 [Compound U5, 2-(4-(4-Chlorophenyl)-5-(1H-indol-3-yl)-4H-1,2,4-triazol-3-ylthio)-N-(4-(2-morpholinoacetamido)phenyl)acetamide]	34.4 ± 2.2	no significant change	45.1 ± 1.15	47.8 ± 3.7			

The remaining lines, values behind:

SMILES	melting point [°C]	IC50 (Bcl-2 protein) [µM]	IC50 (MCF-7 cells [1]) [µM]	Inhibitory activity against HDF cells compared with the negative control [2]	IC50 (MDA-MB-231 cells) [µM]	IC50 (A549 cells) [µM]	Cell cycle effect (MCF-7 cells [3])	Increase in early apoptosis compared with control untreated cells (MCF-7 cells [4]) [fold]	Increase in late apoptosis compared with control untreated cells (MCF-7 cells [4]) [fold]
O=C(CSc1nnc(-c2c[nH]c3ccccc23)n1-c1cccc(Cl)c1)Nc1ccc(NC(=O)CN2CCOCC2)cc1 [Compound U4, 2-(4-(3-Chlorophenyl)-5-(1H-indol-3-yl)-4H-1,2,4-triazol-3-ylthio)-N-(4-(2-morpholinoacetamido)phenyl) acetamide]	220 to 222		11 ± 1.2	no significant change	28.4 ± 1.79	16.1 ± 1.4			
O=C(CSc1nnc(-c2c[nH]c3ccccc23)n1-c1ccc(Cl)c(Cl)c1)Nc1ccc(NC(=O)CN2CCOCC2)cc1 [Compound U6]	218 to 220		35.5 ± 2.14	limited toxicity	79.4 ± 4.04	66.5 ± 0.62			
Cc1cc2c(C(C)C)c(O)c(O)c(C=O)c2c(O)c1-c1c(C)cc2c(C(C)C)c(O)c(O)c(C=O)c2c1O [Gossypol, reference compound]			4.43 ± 0.54		5.5 ± 0.35	3.45 ± 0.4			
